Measured values published in the supplement of paper PMC10307832.

compound: Cc1nc(C(=O)NCC(=O)O)c(O)c2ccc(Oc3ccccc3)cc12 [FG-4592] + COc1cccc2cc(-c3nc([C@H]4CC[C@H](C(=O)O)CC4)n4ncnc(N)c34)[nH]c12 [OSI-027] (partner 0.5 µM); assay: relative viability (nuclei count vs DMSO), 5 days (fraction); higher = more cells survive; conditions: first compound 0.08 µM
Method in brief: (§1)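 For relative viability, nuclei counts in treated wells were divided by those in vehicle wells. Lung cancer cell lines had been pin-tool dosed in 1536-well plates the day after seeding and cultured for 5 days, then fixed and stained in one step (final 0.05% Triton X-100, 1% formaldehyde, 1 ug/ml Hoechst) and imaged at 4×. Doses were one drug alone or a fixed anchor-drug dose plus five library-drug doses (not always all listed) in √10 steps, and values are duplicate-plate medians.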

Cell Line	relative viability
NCI-H322M	0.507
LCLC-97TM1	0.665
NCI-H2009	0.591
A-427	0.479
NCI-H661	0.712
NCI-H1734	0.565
NCI-H460	0.757
NCI-H2347	0.235
SK-LU-1	0.3
201T	0.683
NCI-H1915	0.521
HCC-827	0.677
LXF-289	0.659
NCI-H23	0.612
NCI-H647	0.547
CAL-12T	0.829
NCI-H1651	0.741
EPLC-272H	0.348
NCI-H2228	0.596
NCI-H1792	0.803
NCI-H1355	0.376
NCI-H3122	1
NCI-H1437	0.907
NCI-H1755	0.661
NCI-H2023	0.402
HCC-15	0.626
PC-14	0.871
EKVX	0.626
LC-2-ad	0.838
NCI-H1563	0.78

same assay, conditions: first compound 0.253 µM

Cell Line	relative viability
BEN	0.287
HARA	0.335
HCC-78	0.307
NCI-H322M	0.543
LCLC-97TM1	0.397
NCI-H2009	0.565
A-427	0.393
NCI-H661	0.688
NCI-H1734	0.621
NCI-H460	0.641
SK-LU-1	0.177
201T	0.662
NCI-H1915	0.59
HCC-827	0.727
LXF-289	0.717
NCI-H23	0.517

Cell Line	relative viability
NCI-H647	0.675
CAL-12T	0.663
NCI-H1651	0.639
EPLC-272H	0.206
NCI-H2228	0.402
NCI-H1792	0.69
NCI-H1355	0.372
NCI-H3122	0.899
NCI-H1437	0.812
NCI-H1755	0.649
NCI-H2023	0.359
HCC-15	0.626
PC-14	0.655
EKVX	0.649
LC-2-ad	0.753
NCI-H1563	0.785

same assay, conditions: first compound 0.8 µM

Cell Line	relative viability
BEN	0.315
HARA	0.434
HCC-78	0.406
NCI-H322M	0.557
LCLC-97TM1	0.716
NCI-H2009	0.621
A-427	0.506
NCI-H661	0.688
NCI-H1734	0.541
NCI-H460	0.721
NCI-H2347	0.491
SK-LU-1	0.349
201T	0.738
NCI-H1915	0.683
HCC-827	0.8
LXF-289	0.755

Cell Line	relative viability
NCI-H23	0.488
NCI-H647	0.686
CAL-12T	0.642
NCI-H1651	0.719
EPLC-272H	0.285
NCI-H2228	0.42
NCI-H1792	0.794
NCI-H1355	0.353
NCI-H3122	0.889
NCI-H1437	0.862
NCI-H1755	0.727
NCI-H2023	0.428
HCC-15	0.674
PC-14	0.855
EKVX	0.718
NCI-H1563	0.718

same assay, conditions: first compound 2.53 µM

Cell Line	relative viability
BEN	0.313
HARA	0.392
HCC-78	0.357
NCI-H322M	0.488
LCLC-97TM1	0.488
NCI-H2009	0.476
A-427	0.423
NCI-H661	0.763
NCI-H1734	0.529
NCI-H460	0.554
NCI-H2347	0.3
SK-LU-1	0.345
201T	0.815
NCI-H1915	0.579
HCC-827	0.669
LXF-289	0.709
NCI-H23	0.325

Cell Line	relative viability
NCI-H647	0.565
CAL-12T	0.49
NCI-H1651	0.645
EPLC-272H	0.29
NCI-H2228	0.643
NCI-H1792	0.575
NCI-H1355	0.301
NCI-H3122	0.768
NCI-H1437	0.667
NCI-H1755	0.737
NCI-H2023	0.356
HCC-15	0.614
PC-14	0.747
EKVX	0.663
LC-2-ad	0.591
NCI-H1563	0.701

same assay, conditions: first compound 8 µM

Cell Line	relative viability
BEN	0.299
HARA	0.234
HCC-78	0.362
NCI-H322M	0.469
LCLC-97TM1	0.395
NCI-H2009	0.605
A-427	0.598
NCI-H661	0.668
NCI-H1734	0.445
NCI-H460	0.614
NCI-H2347	0.46
SK-LU-1	0.239
201T	0.704
NCI-H1915	0.578
HCC-827	0.593
LXF-289	0.821
NCI-H23	0.439

Cell Line	relative viability
NCI-H647	0.602
CAL-12T	0.333
NCI-H1651	0.605
EPLC-272H	0.232
NCI-H2228	0.376
NCI-H1792	0.735
NCI-H1355	0.35
NCI-H3122	0.563
NCI-H1437	0.506
NCI-H1755	0.693
NCI-H2023	0.241
HCC-15	0.701
PC-14	0.494
EKVX	0.73
LC-2-ad	0.661
NCI-H1563	0.606

compound: CC1=CC(=C(N1C2=CC=C(C=C2)Cl)C)C(=O)CN3CCCCC3 [IU1-47] + C[C@@H](Oc1cc(-c2cnn(C3CCNCC3)c2)cnc1N)c1c(Cl)ccc(F)c1Cl [Crizotinib] (partner 1 µM); assay: as above; conditions: first compound 0.08 µM
Method in brief: as §1

Cell Line	relative viability
BEN	0.841
HARA	0.945
HCC-78	0.334
NCI-H322M	1.02
LCLC-97TM1	0.461
NCI-H2009	1
A-427	1.04
NCI-H661	1.21
NCI-H1734	0.658
NCI-H460	0.955
NCI-H2347	0.575
SK-LU-1	0.975
201T	1.08
NCI-H1915	0.973
HCC-827	0.89
LXF-289	0.854
NCI-H23	0.533

Cell Line	relative viability
NCI-H647	1.01
CAL-12T	0.689
NCI-H1651	0.887
EPLC-272H	0.957
NCI-H2228	0.524
NCI-H1792	0.993
NCI-H1355	1.17
NCI-H3122	0.277
NCI-H1437	0.909
NCI-H1755	0.883
NCI-H2023	0.663
HCC-15	0.949
PC-14	0.921
EKVX	0.981
LC-2-ad	0.412
NCI-H1563	0.877

same assay, conditions: first compound 0.253 µM

Cell Line	relative viability
BEN	0.99
HARA	1.17
HCC-78	0.358
NCI-H322M	0.923
LCLC-97TM1	0.339
NCI-H2009	1.1
A-427	0.938
NCI-H661	0.975
NCI-H1734	0.688
NCI-H460	1.1
NCI-H2347	0.746
SK-LU-1	0.912
201T	1.04
NCI-H1915	0.892
HCC-827	0.955
LXF-289	0.858
NCI-H23	0.528

Cell Line	relative viability
NCI-H647	1.22
CAL-12T	0.713
NCI-H1651	0.873
EPLC-272H	0.918
NCI-H2228	0.455
NCI-H1792	1.03
NCI-H1355	1.09
NCI-H3122	0.27
NCI-H1437	0.952
NCI-H1755	0.927
NCI-H2023	0.67
HCC-15	0.879
PC-14	0.888
EKVX	1.14
LC-2-ad	0.444
NCI-H1563	0.791

same assay, conditions: first compound 0.8 µM

Cell Line	relative viability
BEN	1.03
HARA	1.29
HCC-78	0.336
NCI-H322M	0.888
LCLC-97TM1	0.458
NCI-H2009	0.933
A-427	0.944
NCI-H661	0.981
NCI-H1734	0.646
NCI-H460	1.05
NCI-H2347	0.727
SK-LU-1	0.963
201T	1.05
NCI-H1915	0.915
HCC-827	1.01
LXF-289	0.82
NCI-H23	0.506

Cell Line	relative viability
NCI-H647	0.99
CAL-12T	0.479
NCI-H1651	0.889
EPLC-272H	0.862
NCI-H2228	0.449
NCI-H1792	1.07
NCI-H1355	1.14
NCI-H3122	0.295
NCI-H1437	0.81
NCI-H1755	0.899
NCI-H2023	0.645
HCC-15	0.908
PC-14	0.845
EKVX	1.05
LC-2-ad	0.434
NCI-H1563	0.882

same assay, conditions: first compound 2.53 µM

Cell Line	relative viability
BEN	0.816
HARA	1.12
HCC-78	0.324
NCI-H322M	1.07
NCI-H2009	1.1
NCI-H661	1.06
NCI-H460	0.861
NCI-H2347	0.674
SK-LU-1	0.996
HCC-827	0.961
LXF-289	0.796
NCI-H23	0.638
NCI-H647	1.07
CAL-12T	0.839
NCI-H1651	0.804
NCI-H2228	0.555
NCI-H1792	1.02
NCI-H1355	1
NCI-H3122	0.269
NCI-H1437	0.926
NCI-H1755	0.895
NCI-H2023	0.78
HCC-15	0.825
PC-14	0.999
EKVX	0.892
LC-2-ad	0.572
NCI-H1563	0.86

same assay, conditions: first compound 8 µM

Cell Line	relative viability
BEN	0.752
HARA	0.719
HCC-78	0.386
NCI-H322M	0.954
LCLC-97TM1	0.323
NCI-H2009	1.05
A-427	0.634
NCI-H661	1.12
NCI-H1734	0.647
NCI-H460	1.46
NCI-H2347	0.762
SK-LU-1	0.814
201T	1.04
NCI-H1915	0.907
HCC-827	0.904
LXF-289	0.817
NCI-H23	0.48

Cell Line	relative viability
NCI-H647	0.561
CAL-12T	0.518
NCI-H1651	0.863
EPLC-272H	0.984
NCI-H2228	0.448
NCI-H1792	0.522
NCI-H1355	1.14
NCI-H3122	0.241
NCI-H1437	0.795
NCI-H1755	0.756
NCI-H2023	0.581
HCC-15	0.704
PC-14	0.926
EKVX	0.793
LC-2-ad	0.41
NCI-H1563	0.802
